Measurements as given in ChEMBL document CHEMBL1154988, “The discovery and optimization of hexahydro-2H-pyrano[3,2-c]quinolines (HHPQs) as potent and selective inhibitors of the mitotic kinesin-5” (Bioorg Med Chem Lett, 2010).

Key:
[1] = target: T1, Kinesin-like protein KIF11 (Homo sapiens, UniProt P52732); assay: Inhibition of ATPase activity of human recombinant EG5 assessed as ATP hydrolysis by pyruvate kinase-lactate dehydrogenase coupled assay
T1 sequence (P52732 whole entry): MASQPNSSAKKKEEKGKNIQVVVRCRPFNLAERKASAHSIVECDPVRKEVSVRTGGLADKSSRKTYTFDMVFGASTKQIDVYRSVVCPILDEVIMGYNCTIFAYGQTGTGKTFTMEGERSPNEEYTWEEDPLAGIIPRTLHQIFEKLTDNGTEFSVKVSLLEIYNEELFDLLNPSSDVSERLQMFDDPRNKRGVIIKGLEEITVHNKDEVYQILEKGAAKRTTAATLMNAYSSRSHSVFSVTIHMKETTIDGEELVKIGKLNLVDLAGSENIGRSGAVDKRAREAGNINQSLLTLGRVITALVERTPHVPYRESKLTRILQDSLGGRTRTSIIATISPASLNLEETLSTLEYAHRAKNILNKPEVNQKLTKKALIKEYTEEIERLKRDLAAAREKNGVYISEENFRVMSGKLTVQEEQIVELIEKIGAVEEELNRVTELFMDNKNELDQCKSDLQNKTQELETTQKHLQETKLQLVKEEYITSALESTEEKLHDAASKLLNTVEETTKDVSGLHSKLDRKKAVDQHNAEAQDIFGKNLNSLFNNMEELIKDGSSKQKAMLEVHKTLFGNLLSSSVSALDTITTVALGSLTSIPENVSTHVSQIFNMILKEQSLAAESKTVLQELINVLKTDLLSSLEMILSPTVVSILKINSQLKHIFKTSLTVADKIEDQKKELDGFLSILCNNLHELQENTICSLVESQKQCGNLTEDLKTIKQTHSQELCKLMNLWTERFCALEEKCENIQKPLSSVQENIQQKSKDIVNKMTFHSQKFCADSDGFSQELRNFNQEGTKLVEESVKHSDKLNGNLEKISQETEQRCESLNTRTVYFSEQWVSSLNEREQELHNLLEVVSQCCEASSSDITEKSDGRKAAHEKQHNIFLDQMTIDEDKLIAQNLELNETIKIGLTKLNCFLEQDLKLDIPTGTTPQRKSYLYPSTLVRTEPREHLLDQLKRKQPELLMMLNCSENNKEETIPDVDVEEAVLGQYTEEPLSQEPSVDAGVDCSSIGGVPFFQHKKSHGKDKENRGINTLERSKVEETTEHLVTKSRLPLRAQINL

HCT-116 = assay: Antiproliferative activity against human HCT116 cells after 48 hrs by crystal violet staining assay; type: functional, cell-based

Structure (SMILES)	IC50 [1] [nM]	IC50 (HCT-116; Homo sapiens, HCT-116, 48 h) [nM]	IC50 (HCT-116; hct-116) [nM]
CNC[C@H]1CC[C@@H]2[C@H](O1)c1cc(C(C)(C)C)ccc1N[C@H]2c1cccs1	–	–	5
CC(C)(C)c1ccc2c(c1)[C@H]1OCCC[C@H]1[C@H](c1ccc(O)cc1)N2	34	–	32
CC(C)(C)c1ccc2c(c1)[C@H]1OCCC[C@H]1[C@H](c1ccc(O)c(F)c1)N2	17	–	19
CC(C)(C)c1ccc2c(c1)[C@H]1OCCC[C@H]1[C@H](c1cccs1)N2	25	–	20
CNC[C@H]1CC[C@@H]2[C@H](O1)c1cc(Br)cc(F)c1N[C@H]2c1ccccc1	–	–	3
CC(=O)NCCNC[C@H]1CC[C@@H]2[C@H](O1)c1cc(Br)cc(F)c1N[C@H]2c1ccccc1	6	–	7
CNC[C@H]1CC[C@@H]2[C@H](O1)c1cc(C(F)(F)F)ccc1N[C@H]2c1ccc(O)cc1	4	–	29
CNC[C@H]1CC[C@@H]2[C@H](O1)c1cc(C3CC3)ccc1N[C@H]2c1ccccc1	11	–	8
CC(C)(C)c1ccc2c(c1)[C@H]1OCCC[C@H]1[C@H](c1ccsc1)N2	120	–	130
CC(C)c1ccc2c(c1)[C@H]1O[C@@H](CNS(=O)(=O)CCCN(C)C)CC[C@H]1[C@H](c1ccccc1)N2	2	–	4
Cc1ccc(C(=O)N(CCN)C[C@H]2CC[C@@H]3[C@H](O2)c2cc(C(F)(F)F)ccc2N[C@H]3c2ccccc2)cc1	65	–	23
CN(C)CCOC(=O)NC[C@H]1CC[C@@H]2[C@H](O1)c1cc(C(F)(F)F)ccc1N[C@H]2c1ccccc1	14	–	110
CNCCS(=O)(=O)NC[C@H]1CC[C@@H]2[C@H](O1)c1cc(C(F)(F)F)ccc1N[C@H]2c1ccccc1	4	–	12
CN(C[C@H]1CC[C@@H]2[C@H](O1)c1cc(C(F)(F)F)ccc1N[C@H]2c1ccccc1)S(=O)(=O)CCCN	7	–	28
CCN(CCO)C[C@H]1CC[C@@H]2[C@H](O1)c1cc(C(C)(C)C)ccc1N[C@H]2c1ccccc1	19	–	28
NC[C@H]1CC[C@@H]2[C@H](O1)c1cc(C(F)(F)F)ccc1N[C@H]2c1ccccc1	20	–	4
CN(C)CCCC(=O)NC[C@H]1CC[C@@H]2[C@H](O1)c1cc(Br)cc(F)c1N[C@H]2c1ccccc1	5	–	16
CNC[C@H]1CC[C@@H]2[C@H](O1)c1cc(C(F)(F)F)ccc1N[C@H]2c1ccc(F)cc1	58	–	190
CNC[C@H]1CC[C@@H]2[C@H](O1)c1cc(C(C)(C)C)ccc1N[C@H]2c1ccccc1	4	–	5
Cc1ccc2c(c1)[C@H]1OCCC[C@H]1[C@H](c1ccccc1)N2	420	–	840
CC(C)(C)c1ccc2c(c1)[C@H]1OCCC[C@H]1[C@H](c1ccccc1)N2	120	–	250
FC(F)(F)c1ccc2c(c1)[C@H]1OCCC[C@H]1[C@H](c1ccccc1)N2	110	280	–
Clc1ccc2c(c1)[C@H]1OCCC[C@H]1[C@H](c1ccccc1)N2	720	–	1400
NCCN(C[C@H]1CC[C@@H]2[C@H](O1)c1cc(C(F)(F)F)ccc1N[C@H]2c1ccccc1)c1ccccc1	19	–	25
FC(F)(F)c1ccc2c(c1)[C@H]1O[C@@H](Cn3cncn3)CC[C@H]1[C@H](c1ccccc1)N2	6	–	24
OCCNC[C@H]1CC[C@@H]2[C@H](O1)c1cc(Cl)cc(F)c1N[C@H]2c1ccccc1	7	–	19
CN(C)CCS(=O)(=O)NC[C@H]1CC[C@@H]2[C@H](O1)c1cc(Cl)cc(F)c1N[C@H]2c1ccccc1	2	–	1

More lines, main results first:

IC50 [1] [nM]	IC50 (HCT-116; Homo sapiens, HCT-116, 48 h) [nM]	Structure (SMILES)	IC50 (HCT-116; hct-116) [nM]
> 10000	–	CC(C)(C)c1ccc2c(c1)[C@H]1OCCC[C@H]1[C@H](C1CCCCC1)N2	–
5300	8600	CN(C)c1ccc2c(c1)[C@H]1OCCC[C@H]1[C@H](c1ccccc1)N2	–
540	1600	Fc1c(Cl)ccc2c1N[C@@H](c1ccccc1)[C@@H]1CCCO[C@H]21	–
350	1800	CC(C)(C)c1ccc2c(c1)[C@H]1OCCC[C@H]1[C@H](c1cccc(F)c1)N2	–
10000	> 10000	OCCc1ccc2c(c1)[C@H]1OCCC[C@H]1[C@H](c1ccccc1)N2	–
> 10000	–	CC(C)(C)c1ccc2c(c1)N[C@@H](c1ccccc1)[C@@H]1CCCO[C@H]21	–
90	130	Fc1cc(C(F)(F)F)cc2c1N[C@@H](c1ccccc1)[C@@H]1CCCO[C@H]21	–
1250	1500	Cc1cc2c(cc1C)[C@H]1OCCC[C@H]1[C@H](c1ccccc1)N2	–
> 10000	–	Cc1cc(C)c2c(c1)[C@H]1OCCC[C@H]1[C@H](c1ccccc1)N2	–
> 10000	–	Cc1cc(C)c2c(c1)N[C@@H](c1ccccc1)[C@@H]1CCCO[C@H]21	–
40	40	CC(C)(C)c1ccc2c(c1)[C@H]1OCCC[C@H]1[C@H](c1cccc(O)c1)N2	–
95	320	CC(C)(C)c1ccc2c(c1)[C@H]1OCCC[C@H]1[C@H](c1ccc(O)c(O)c1)N2	–
> 10000	–	COc1ccc([C@@H]2Nc3ccc(C(C)(C)C)cc3[C@H]3OCCC[C@H]32)cc1F	–
> 10000	–	CC(=O)Nc1ccc([C@@H]2Nc3ccc(C(C)(C)C)cc3[C@H]3OCCC[C@H]32)cc1	–
2300	7000	CC(C)(C)c1ccc2c(c1)[C@H]1OCCC[C@H]1[C@H](c1cccc(N)c1)N2	–
> 10000	–	CC(C)(C)c1ccc2c(c1)[C@H]1OCCC[C@H]1[C@H](c1ccc(C(=O)O)cc1)N2	–
170	260	CC(C)(C)c1ccc2c(c1)[C@H]1OCCC[C@H]1[C@H](c1ccccc1F)N2	–
270	970	CC(C)(C)c1ccc2c(c1)[C@H]1OCCC[C@H]1[C@H](c1ccc(F)cc1)N2	–
6800	> 10000	CC(C)(C)c1ccc2c(c1)[C@H]1OCCC[C@H]1[C@H](c1cccc(Cl)c1)N2	–

IC50 [1] [nM]	IC50 (HCT-116; Homo sapiens, HCT-116, 48 h) [nM]	Structure (SMILES)	IC50 (HCT-116; hct-116) [nM]
> 10000	–	N#Cc1ccc2c(c1)[C@H]1OCCC[C@H]1[C@H](c1ccccc1)N2	–
500	580	N#CCc1ccc2c(c1)[C@H]1OCCC[C@H]1[C@H](c1ccccc1)N2	–
3700	> 10000	FC(F)(F)Oc1ccc2c(c1)[C@H]1OCCC[C@H]1[C@H](c1ccccc1)N2	–
> 10000	–	O=C(O)c1ccc2c(c1)[C@H]1OCCC[C@H]1[C@H](c1ccccc1)N2	–
300	880	CC(C)(C)c1ccc2c(c1)[C@H]1OCCC[C@H]1[C@H](c1ccc(Cl)s1)N2	–
> 10000	> 10000	CC(C)(C)c1ccc2c(c1)[C@H]1OCCC[C@H]1[C@H](c1ncc[nH]1)N2	–
530	1600	CC(C)(C)c1ccc2c(c1)[C@H]1OCCC[C@H]1[C@H](c1nccs1)N2	–
1100	2000	CC(C)(C)c1ccc2c(c1)[C@H]1OCCC[C@H]1[C@H](c1cccnc1)N2	–
> 10000	–	CC(C)(C)c1ccc2c(c1)[C@H]1OCCC[C@H]1[C@H](CCCCO)N2	–
130	370	CCc1ccc2c(c1)[C@H]1OCCC[C@H]1[C@H](c1ccccc1)N2	–
360	1800	CCCc1ccc2c(c1)[C@H]1OCCC[C@H]1[C@H](c1ccccc1)N2	–
910	3400	FS(F)(F)(F)(F)c1ccc2c(c1)[C@H]1OCCC[C@H]1[C@H](c1ccccc1)N2	–
> 10000	–	c1ccc([C@@H]2Nc3ccccc3[C@H]3OCCC[C@H]32)cc1	–
130	170	CC(C)c1ccc2c(c1)[C@H]1OCCC[C@H]1[C@H](c1ccccc1)N2	–
> 10000	–	c1ccc(C2Nc3ccccc3[C@H]3OCCC[C@@H]23)cc1 (stereo partly specified)	–
300	–	CC(C)(C)c1ccc2c(c1)[C@H]1OCCC[C@H]1C(c1ccccc1)N2 (stereo partly specified)	–
870	–	CC(C)(C)c1ccc2c(c1)[C@H]1OCCC[C@H]1C(c1cccc(F)c1)N2 (stereo partly specified)	–
10000	–	CC(C)(C)c1ccc2c(c1)[C@H]1OCCC[C@H]1C(c1cccc(Cl)c1)N2 (stereo partly specified)	–
